We go through five molecules from patent publication US7332521B2, “Substituted indoles” (Wyeth, priority 2003, dated 2008).

The target of experiment [1] is T1, recombinant human plasminogen activator inhibitor-1 (PAI-1) (Homo sapiens, UniProt P05121).
T1 construct: purchased Molecular Innovations, Royal Oak, Mich
Put plainly: Primary screen for the PAI-1 inhibition (chromogenic tPA activity). Format: biochemical. To be noted: pH 6.6 buffer; for inhibition at 10 µM: 10 μM test compound; for inhibition at 25 µM: 25 μM test compound. Here is the method:
Test compounds are dissolved in DMSO at a final concentration of 10 mM, then diluted 100× in physiologic buffer. The inhibitory assay is initiated by the addition of the test compound (1-100 μM final concentration, maximum DMSO concentration of 0.2%) in a pH 6.6 buffer containing 140 nM recombinant human plasminogen activator inhibitor-1 (PAI-1; Molecular Innovations, Royal Oak, Mich.). Following a 1 hour incubation at room temperature, 70 nM of recombinant human tissue plasminogen activator (tPA) is added, and the combination of the test compound, PAI-1 and tPA is incubated for an additional 30 minutes. Following the second incubation, Spectrozyme-tPA (American Diagnostica, Greenwich, Conn.), a chromogenic substrate for tPA, is added and absorbance read at 405 nm at 0 and 60 minutes. Relative PAI-1 inhibition is equal to the residual tPA activity in the presence of the test compound and PAI-1. Control treatments include the complete inhibition of tPA by PAI-1 at the molar ratio employed (2:1), and the absence of any effect of the test compound on tPA alone.

Experiment [2] addresses human PAI-1 (Homo sapiens, UniProt P05121). Put plainly: Assay for determining IC50 of inhibition of PAI-1 (active PAI-1 bound to tPA-coated plate). Format: binding. To be noted: pH 7.5 buffer. The protocol:
This assay is based upon the non-SDS dissociable interaction between tPA and active PAI-1. Assay plates are initially coated with human tPA (10 μg/ml). Test compounds of the present invention are dissolved in DMSO at 10 mM, then diluted with physiologic buffer (pH 7.5) to a final concentration of 1-50 μM. Test compounds are incubated with human PAI-1 (50 ng/ml) for 15 minutes at room temperature. The tPA-coated plate is washed with a solution of 0.05% Tween 20 and 0.1% BSA, then the plate is blocked with a solution of 3% BSA. An aliquot of the subtituted indole/PAI-1 solution is then added to the tPA-coated plate, incubated at room temperature for 1 hour, and washed. Active PAI-1 bound to the plate is assessed by adding an aliquot of a 1:1000 dilution of the 33B8 monoclonal antibody against human PAI-1, and incubating the plate at room temperature for 1 hour (Molecular Innovations, Royal Oak, Mich.). […] The plate is incubated 45 minutes at room temperature, and color development is determined at OD405nm. The quantitation of active PAI-1 bound to tPA at varying concentrations of the test compound is used to determine the IC50. Results are analyzed using a logarithmic best-fit equation. The assay sensitivity is 5 ng/ml of human PAI-1 as determined from a standard curve ranging from 0-100 ng/ml.

pIC50: −log10 of the molar value.

T1 sequence (P05121 24-402): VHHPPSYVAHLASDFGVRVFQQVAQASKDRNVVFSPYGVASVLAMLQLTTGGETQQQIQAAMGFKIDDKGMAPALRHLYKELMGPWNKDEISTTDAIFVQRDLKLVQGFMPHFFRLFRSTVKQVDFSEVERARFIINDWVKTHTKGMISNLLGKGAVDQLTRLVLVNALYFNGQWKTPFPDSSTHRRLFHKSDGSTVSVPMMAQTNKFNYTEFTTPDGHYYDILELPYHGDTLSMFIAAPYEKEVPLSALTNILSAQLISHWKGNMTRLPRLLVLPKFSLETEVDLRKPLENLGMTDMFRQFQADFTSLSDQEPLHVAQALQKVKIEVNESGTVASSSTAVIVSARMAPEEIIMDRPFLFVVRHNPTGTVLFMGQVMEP
Chain of human PAI-1 (P05121 24-402): as above

On to `CC(C)(C)c1ccc(Nc2ccc3c(c2)c(-c2ccccc2)c(C(=O)O)n3Cc2ccccc2)cc1` [Compound 2, 1-benzyl-5-[(4-tert-butylphenyl)amino]-3-phenyl-1H-indole-2-carboxylic acid], for which, in experiment [1], the inhibition (in general, the relative decrease from the control value, in per cent) at 10 µM turned out to be 45% and the inhibition at 25 µM stood at 73%.

Consider `O=C(O)c1c(-c2ccccc2)c2cc(Nc3ccc(-c4ccccc4)cc3)ccc2n1Cc1ccccc1` [Compound 3, 1-benzyl-5-(1,1′-biphenyl-4-ylamino)-3-phenyl-1H-indole-2-carboxylic acid], for which, in experiment [1], the inhibition at 10 µM is 36% and the inhibition at 25 µM is 71%.

`Cc1cccc(Nc2ccc3c(c2)c(-c2ccccc2)c(C(=O)O)n3Cc2ccccc2)c1` [Compound 1, 1-benzyl-5-[(3-methylphenyl)amino]-3-phenyl-1H-indole-2-carboxylic acid]: in experiment [1], the inhibition at 10 µM was found to be 24% and the inhibition at 25 µM was found to be 69%.

On to `O=C(O)c1c(-c2ccccc2)c2cc(Nc3cccc4c3sc3ccccc34)ccc2n1Cc1ccccc1` [Compound 4, 1-benzyl-5-(dibenzo[b,d]thien-4-ylamino)-3-phenyl-1H-indole-2-carboxylic acid], for which, in experiment [1], the inhibition at 10 µM came out at 39% and the inhibition at 25 µM worked out at 66%.

Consider `CC(C)(C)c1ccc(Nc2ccc3c(c2)c(-c2ccccc2)c(C(=O)O)n3Cc2ccc(-c3ccccc3)cc2)cc1` [Compound 5, 1-(1,1′-biphenyl-4-ylmethyl)-5-[(4-tert-butylphenyl)amino]-3-phenyl-1H-indole-2-carboxylic acid], for which, in experiment [1], the inhibition at 10 µM came out at 52% and the inhibition at 25 µM is 80%. Moreover, in experiment [2], the pIC50 (usually the negative decadic logarithm of the IC50, by convention in mol/L) is 4.92.
